Data published in patent publication US20100298141A1, “SUBSTITUTED PYRIDINE N-OXIDE HERBICIDES” (E. I. DU PONT DE NEMOURS AND COMPANY, priority 2007, published 2010).

What was measured:
[1] = system: barnyardgrass; experiment: Test A pre-/postemergence greenhouse test; format: in vivo, Echinochloa crus-galli; details: for Plant response rating, Barnyardgrass: 0 to 100 scale where 0 is no effect and 100 is complete control; for Barnyardgrass plant response rating: 0 to 100 scale
Summary of the method: (§1)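 Visual injury ratings against untreated controls, taken roughly ten days after treatment in greenhouse. Plants were sprayed postemergence at one- to two-leaf stage (2–10 cm tall); at the same time, seeded loam/sand soil received a directed preemergence spray. Formulation: non-phytotoxic solvent mixture with surfactant.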

[2] = system: morningglory; experiment: Test A pre-/postemergence greenhouse test; format: in vivo, Ipomoea spp.; details: for Plant response rating, Morningglory: 0 to 100 scale where 0 is no effect and 100 is complete control; for Morningglory plant response rating: 0 to 100 scale
Summary of the method: as §1

[3] = system: blackgrass; experiment: Test C pre-/postemergence test; format: in vivo, Alopecurus myosuroides
Summary of the method: (§2)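 Seeds were planted and treated preemergence with test chemical in a non-phytotoxic solvent mixture containing surfactant. Postemergence applications of the same formulation went onto plants 2 to 18 cm tall (1- to 4-leaf stage). A dash marks no test result.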

[4] = system: green foxtail; experiment: Test C pre-/postemergence test; format: in vivo, Setaria viridis
Summary of the method: as §2

[5] = system: Italian ryegrass; experiment: Test C pre-/postemergence test; format: in vivo, Lolium multiflorum
Summary of the method: as §2

[6] = system: wheat; experiment: Test C pre-/postemergence test; format: in vivo, Triticum aestivum
Summary of the method: as §2

[7] = system: cocklebur; experiment: Test C pre-/postemergence test; format: in vivo, Xanthium strumarium
Summary of the method: as §2

[8] = system: corn; experiment: Test C pre-/postemergence test; format: in vivo, Zea mays
Summary of the method: as §2

[9] = system: crabgrass; experiment: Test C pre-/postemergence test; format: in vivo, Digitaria sanguinalis
Summary of the method: as §2

[10] = system: woolly cupgrass; experiment: Test C pre-/postemergence test; format: in vivo, Eriochloa villosa
Summary of the method: as §2

[11] = system: kochia; experiment: Test C pre-/postemergence test; format: in vivo, Kochia scoparia
Summary of the method: as §2

[12] = system: morningglory; experiment: Test C pre-/postemergence test; format: in vivo, Ipomoea coccinea
Summary of the method: as §2

[13] = system: yellow nutsedge; experiment: Test C pre-/postemergence test; format: in vivo, Cyperus esculentus
Summary of the method: as §2

[14] = system: pigweed; experiment: Test C pre-/postemergence test; format: in vivo, Amaranthus retroflexus
Summary of the method: as §2

[15] = system: soybean; experiment: Test C pre-/postemergence test; format: in vivo, Glycine max
Summary of the method: as §2

[16] = system: common (oilseed) sunflower; experiment: Test C pre-/postemergence test; format: in vivo, Helianthus annuus
Summary of the method: as §2

[17] = system: umbrella sedge; experiment: Test C flooded paddy test; format: in vivo, Cyperus difformis; details: Flood
Summary of the method: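 Under a constant 3 cm flood, test compounds went directly into the paddy water. Following 13 to 15 days of greenhouse growth, treated species and controls were compared by eye.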

[18] = Postemergence, 500 g ai/ha, 0 is no effect, 100 is complete control
[19] = Preemergence, 125 g ai/ha, 0 no effect, 100 complete control
[20] = 62 g ai/ha, Preemergence, scale 0 to 100
[21] = 125 g ai/ha, preemergence, scale 0 (no effect) to 100 (complete control)
[22] = Preemergence, 31 g ai/ha, scale 0 to 100 (0 no effect, 100 complete control)
[23] = preemergence, 250 g ai/ha, scale 0 (no effect) to 100 (complete control)

Cn1nc(C(F)(F)F)c(C[S+]([O-])c2ccc(Cl)c[n+]2[O-])c1OCC(F)F (stereo not shown) [Compound 85]
Plant response rating, Barnyardgrass ([1]; Postemergence, 125 g ai/ha): 70 | Barnyardgrass plant response rating [1, 18]: 90 | Barnyardgrass plant response rating [1, 19]: 70 | Plant response rating, Barnyardgrass ([1]; Preemergence, 500 g ai/ha): 100 | Plant response rating, Morningglory ([2]; Postemergence, 125 g ai/ha): 70 | Morningglory plant response rating [2, 18]: 90 | Morningglory plant response rating [2, 19]: 60 | Plant response rating, Morningglory ([2]; Preemergence, 500 g ai/ha): 100 | Blackgrass plant response rating [3, 20]: 100 | Blackgrass plant response rating [3, 21]: 100 | Plant response rating, Blackgrass [3, 22]: 100 | Blackgrass plant response rating [3, 23]: 100 | Foxtail, Green plant response rating [4, 20]: 100 | Foxtail, Green plant response rating [4, 21]: 100 | Plant response rating, Foxtail, Green [4, 22]: 100 | Foxtail, Green plant response rating [4, 23]: 100 | Ryegrass, Italian plant response rating [5, 20]: 90 | Ryegrass, Italian plant response rating [5, 21]: 90 | Plant response rating, Ryegrass, Italian [5, 22]: 80 | Ryegrass, Italian plant response rating [5, 23]: 100 | Wheat plant response rating [6, 20]: 50 | Wheat plant response rating [6, 21]: 70 | Plant response rating, Wheat [6, 22]: 50 | Wheat plant response rating [6, 23]: 100 | Cocklebur plant response rating [7, 20]: 0 | Cocklebur plant response rating [7, 21]: 0 | Plant response rating, Cocklebur [7, 22]: 0 | Cocklebur plant response rating [7, 23]: 0 | Corn plant response rating [8, 20]: 95 | Corn plant response rating [8, 21]: 98 | Plant response rating, Corn [8, 22]: 95 | Corn plant response rating [8, 23]: 99 | Crabgrass, Large plant response rating [9, 20]: 85 | Plant response rating, Crabgrass, Large [9, 22]: 80 | Crabgrass, Large plant response rating [9, 23]: 100 | Cupgrass, Woolly plant response rating [10, 20]: 95 | Cupgrass, Woolly plant response rating [10, 21]: 95 | Plant response rating, Cupgrass, Woolly [10, 22]: 80 | Cupgrass, Woolly plant response rating [10, 23]: 100 | Kochia plant response rating [11, 20]: 100 | Kochia plant response rating [11, 21]: 100 | Plant response rating, Kochia [11, 22]: 100 | Kochia plant response rating [11, 23]: 100 | Morningglory plant response rating [12, 20]: 90 | Morningglory plant response rating [12, 21]: 90 | Morningglory plant response rating [12, 23]: 100 | Nutsedge, Yellow plant response rating [13, 20]: 40 | Nutsedge, Yellow plant response rating [13, 21]: 40 | Plant response rating, Nutsedge, Yellow [13, 22]: 40 | Nutsedge, Yellow plant response rating [13, 23]: 95 | Pigweed plant response rating [14, 20]: 100 | Pigweed plant response rating [14, 21]: 100 | Plant response rating, Pigweed [14, 22]: 100 | Pigweed plant response rating [14, 23]: 100 | Soybean plant response rating [15, 20]: 100 | Plant response rating, Soybean [15, 22]: 100 | Soybean plant response rating [15, 23]: 100 | Sunflower plant response rating [16, 20]: 30 | Sunflower plant response rating [16, 21]: 50 | Sunflower plant response rating [16, 23]: 80 | Plant response rating, Sedge, Umbrella ([17]; 31 g ai/ha, scale 0 to 100 (0 no effect, 100 complete control)): 0 | Plant response rating, Sedge, Umbrella ([17]; 62 g ai/ha, scale 0 to 100 (0 no effect, 100 complete control)): 45 | Plant response rating, Sedge, Umbrella ([17]; 125 g ai/ha, scale 0 to 100, 0 no effect, 100 complete control, 13 to 15 days): 60 | Plant response rating, Sedge, Umbrella ([17]; 250 g ai/ha, scale 0 to 100, 0 no effect, 100 complete control, 13 to 15 days): 95
